Laboratory results reported in PMC7725003, “Systematically Studying the Optimal Amino Acid Distribution Patterns of the Amphiphilic Structure by Using the Ultrashort Amphiphiles” (Frontiers in Microbiology, 2020).
Where no end group is shown, it is not given here.

Experiments:
B. subtilis 63501 = format: cell-based, Bacillus subtilis; conditions: 63501, 24 h
Experimental: (§1) The antimicrobial activities of the peptides were measured using a method adapted from the National Committee for Clinical Laboratory Standards (NCCLS) with some modifications ([Chou et al., 2016]). The specific procedure for these assays has been previously described. In brief, the bacterial cells were grown to a mid-logarithmic phase and diluted in MHB to an ultimate concentration of 0.5–1 × 10^6 CFU mL^–1. Subsequently, the peptides were consecutively diluted in a 0.2% BSA solution and then added to a bacterial solution in a 96-well plate at identical volumes. After incubation for 24 h at 37°C, the MICs were determined to be the lowest peptide concentration that inhibited 95% of the bacterial growth by monitoring the absorbance at 492 nm using a microplate reader. Subsequently, 50 μL of each incubation mixture was further transferred to agar plates and incubated overnight. The minimum bactericidal concentrations (MBCs) were determined as the lowest peptide concentration that killed greater than 99.9% of the bacterial cells. Every assay was reproduced more than 3 times.

E. coli UB1005 = format: cell-based, Escherichia coli; conditions: UB1005, 24 h
Experimental: as §1

E. coli O78 = format: cell-based, Escherichia coli; conditions: O78, 24 h
Experimental: as §1

E. coli 25922 = format: cell-based, Escherichia coli; conditions: 25922, 24 h
Experimental: as §1

S. epidermidis 12228 = format: cell-based, Staphylococcus epidermidis; conditions: 12228, 24 h
Experimental: as §1

E. faecalis 29212 = format: cell-based, Enterococcus faecalis; conditions: 29212, 24 h
Experimental: as §1

S. aureus 29213 [1] = experiment: Salt sensitivity assay (MIC); format: cell-based, Staphylococcus aureus; conditions: for MIC, FeCl3: 4 μM FeCl3; for MIC, NH4Cl: 6 μM NH4Cl; for MIC, ZnCl2: 8 μM ZnCl2; for MIC, MgCl2: 1 mM MgCl2; for MIC, CaCl2: 2 mM CaCl2; for MIC, KCl: 4.5 mM KCl; for MIC, NaCl: 150 mM NaCl; for MIC, Control: no added salt, three independent assays
Experimental: as §1
(§2) The salt sensitivities of the peptides were determined. E. coli ATCC 25922 and S. aureus ATCC 29213 were incubated in the presence of various ultimate concentrations of physiological salts (150 mM NaCl, 4.5 mM KCl, 6 μM NH4Cl, 8 μM ZnCl2, 1 mM MgCl2, 2mM CaCl2, and 4 μM FeCl3) according to our previous protocol ([Yang et al., 2019]). These tests were performed under the MICs, and three independent assays were performed.

S. typhimurium 14028 = format: cell-based, Salmonella typhimurium; conditions: 14028, 24 h
Experimental: as §1

S. typhimurium 7731 = format: cell-based, Salmonella typhimurium; conditions: 7731, 24 h
Experimental: as §1

MRSA 43300 = format: cell-based, methicillin-resistant S. aureus; conditions: 43300, 24 h
Experimental: as §1

[2] = test system: Listeria monocytogenes CGMCC 1.1075; format: cell-based; conditions: CGMCC 1.1075, 24 h
Experimental: as §1

S. aureus 29213 [3] = format: cell-based, Staphylococcus aureus; conditions: 29213, 24 h
Experimental: as §1

S. aureus 25923 = format: cell-based, Staphylococcus aureus; conditions: 25923, 24 h
Experimental: as §1

P. aeruginosa 27853 = format: cell-based, Pseudomonas aeruginosa; conditions: 27853, 24 h
Experimental: as §1

S. pullorum 7913 = format: cell-based, Salmonella pullorum; conditions: 7913, 24 h
Experimental: as §1

Gram-positive bacteria = conditions: for GM, Gram-positive bacteria: geometric mean of MICs (Table 3); for TI, Gram-positive bacteria: therapeutic index TI = MHC/GM MIC
Experimental: (§3) The antimicrobial activity of AMPs is the most decisive index for evaluating the clinical application of antimicrobial drugs.
as §1, with “The minimum bactericidal concentrations (MBCs) were determined as the lowest peptide concentration that killed greater than 99.9% of the bacterial cells.” left out

Gram-negative bacteria = conditions: for GM, Gram-negative bacteria: geometric mean of MICs (Table 3); for TI, Gram-negative bacteria: therapeutic index TI = MHC/GM MIC
Experimental: as §3
as §1, with “The minimum bactericidal concentrations (MBCs) were determined as the lowest peptide concentration that killed greater than 99.9% of the bacterial cells.” left out

E. coli ATCC 25922 = experiment: Salt sensitivity assay (MIC); format: cell-based, Escherichia coli; conditions: for MIC, FeCl3: 4 μM FeCl3; for MIC, NH4Cl: 6 μM NH4Cl; for MIC, ZnCl2: 8 μM ZnCl2; for MIC, MgCl2: 1 mM MgCl2; for MIC, CaCl2: 2 mM CaCl2; for MIC, KCl: 4.5 mM KCl; for MIC, NaCl: 150 mM NaCl; for MIC, Control: no added salt, three independent assays
Experimental: as §1, §2

[4] = test system: all of the tested bacterial strains; experiment: Geometric mean of MICs, all tested bacterial strains; format: cell-based; conditions: for GM, All: geometric mean of MICs across all tested strains; for TI, All: therapeutic index TI = MHC/GM MIC
Excerpt: The antimicrobial activity of AMPs is the most decisive index for evaluating the clinical application of antimicrobial drugs. Many antimicrobial agents inhibit bacterial growth rather than kill the bacteria quickly, and long-term infections are pathogens that are not completely killed, which results in bacterial severe drug resistance. […] The geometric mean (GM) values of the MICs/MBCs of the two series across all of the tested bacterial strains are represented in Table 3, which depicts the average bacteriostatic/bactericidal level of a peptide.
as §1

WWRWWRRRW-NH2 [W1]
16 µM: MBC [2] | MBC (P. aeruginosa 27853)
4 µM: MIC (E. coli UB1005) | MIC (E. coli O78) | MIC (E. coli 25922) | MBC (S. epidermidis 12228) | MIC (E. faecalis 29212) | MIC, NaCl (S. aureus 29213 [1]) | MIC (S. typhimurium 14028) | MIC (S. typhimurium 7731) | MBC (MRSA 43300) | MBC (S. aureus 29213 [3]) | MBC (S. aureus 25923) | MIC (S. pullorum 7913) | MIC, NH4Cl (E. coli ATCC 25922) | MIC, KCl (E. coli ATCC 25922) | MIC, Control (E. coli ATCC 25922)
2 µM: MBC (B. subtilis 63501) | MIC (S. epidermidis 12228) | MIC, FeCl3 (S. aureus 29213 [1]) | MIC, NH4Cl (S. aureus 29213 [1]) | MIC, ZnCl2 (S. aureus 29213 [1]) | MIC, MgCl2 (S. aureus 29213 [1]) | MIC, CaCl2 (S. aureus 29213 [1]) | MIC, KCl (S. aureus 29213 [1]) | MIC, Control (S. aureus 29213 [1]) | MIC (MRSA 43300) | MIC (S. aureus 29213 [3]) | MIC (S. aureus 25923) | MIC, FeCl3 (E. coli ATCC 25922) | MIC, ZnCl2 (E. coli ATCC 25922) | MIC, MgCl2 (E. coli ATCC 25922) | MIC, CaCl2 (E. coli ATCC 25922)
18.23: TI, All [4]
3.51 µM: GM, All [4]
1 µM: MIC (B. subtilis 63501)
8 µM: MBC (E. coli UB1005) | MBC (E. coli O78) | MBC (E. coli 25922) | MBC (E. faecalis 29212) | MBC (S. typhimurium 14028) | MBC (S. typhimurium 7731) | MIC [2] | MIC (P. aeruginosa 27853) | MBC (S. pullorum 7913) | MIC, NaCl (E. coli ATCC 25922)
4.67 µM: GM, Gram-negative bacteria (Gram-negative bacteria)
2.44 µM: GM, Gram-positive bacteria (Gram-positive bacteria)
26.23: TI, Gram-positive bacteria (Gram-positive bacteria)
13.70: TI, Gram-negative bacteria (Gram-negative bacteria)

WWWRRRRWW-NH2 [W4]
16 µM: MBC (E. coli UB1005) | MBC (E. coli O78) | MBC (S. typhimurium 14028) | MBC (S. typhimurium 7731) | MIC [2] | MBC (P. aeruginosa 27853) | MIC, MgCl2 (E. coli ATCC 25922) | MIC, KCl (E. coli ATCC 25922) | MIC, NaCl (E. coli ATCC 25922)
5.88 µM: GM, Gram-negative bacteria (Gram-negative bacteria)
4.18 µM: GM, All [4]
47.58: TI, Gram-positive bacteria (Gram-positive bacteria)
1 µM: MIC (B. subtilis 63501) | MIC, NH4Cl (S. aureus 29213 [1]) | MIC, ZnCl2 (S. aureus 29213 [1]) | MIC, MgCl2 (S. aureus 29213 [1]) | MIC, KCl (S. aureus 29213 [1]) | MIC, NaCl (S. aureus 29213 [1])
4 µM: MIC (E. coli 25922) | MBC (S. epidermidis 12228) | MIC (E. faecalis 29212) | MBC (MRSA 43300) | MBC (S. aureus 29213 [3]) | MBC (S. aureus 25923) | MIC (S. pullorum 7913) | MIC, FeCl3 (E. coli ATCC 25922) | MIC, ZnCl2 (E. coli ATCC 25922) | MIC, Control (E. coli ATCC 25922)
2.69 µM: GM, Gram-positive bacteria (Gram-positive bacteria)
32 µM: MBC [2]
30.62: TI, All [4]
8 µM: MIC (E. coli UB1005) | MIC (E. coli O78) | MBC (E. coli 25922) | MBC (E. faecalis 29212) | MIC (S. typhimurium 14028) | MIC (S. typhimurium 7731) | MIC (P. aeruginosa 27853) | MBC (S. pullorum 7913) | MIC, CaCl2 (E. coli ATCC 25922)
2 µM: MBC (B. subtilis 63501) | MIC (S. epidermidis 12228) | MIC, FeCl3 (S. aureus 29213 [1]) | MIC, CaCl2 (S. aureus 29213 [1]) | MIC, Control (S. aureus 29213 [1]) | MIC (MRSA 43300) | MIC (S. aureus 29213 [3]) | MIC (S. aureus 25923) | MIC, NH4Cl (E. coli ATCC 25922)
21.77: TI, Gram-negative bacteria (Gram-negative bacteria)
